The text below walks through data of patent US20230340011A1 (Asteroid Therapeutics, priority 2022, published 2023).

SMILES strings stand for the structures.

One assay addresses SREBP-2 (Homo sapiens (Human), UniProt Q12772). The experiment in a line: In vitro assay SREBP-2: PathHunter U2OS SREBP-2 Nuclear Translocation Cell Line, U18666A-stimulated. It is filed as cell-based. The following applies: PathHunter U2OS SREBP-2 nuclear translocation cells, U18666A 10 μM, overnight (16 hours).
In the next assay the target is LXRβ (Homo sapiens (Human), UniProt P55055). The experiment in a line: In vitro assay LXRβ: PathHunter NHR CHO cells, LXRβ / Steroid Receptor Co-activator Peptide enzyme fragment complementation. Format: cell-based. Particulars: PathHunter NHR CHO cells, full-length human LXRβ and SRCP, chemiluminescent signal; read-out: LXRβ PPI. In a few lines:
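Co-activator recruitment measured by chemiluminescence after signal generation. The CHO line carries full-length human LXRβ tagged with ProLink and an SRCP–enzyme acceptor fusion in the nucleus; cells sat overnight at 37° C before testing, in charcoal-dextran filtered serum medium with 1% final vehicle.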

Chain of LXRβ (P55055 whole entry, the tested form may be a part): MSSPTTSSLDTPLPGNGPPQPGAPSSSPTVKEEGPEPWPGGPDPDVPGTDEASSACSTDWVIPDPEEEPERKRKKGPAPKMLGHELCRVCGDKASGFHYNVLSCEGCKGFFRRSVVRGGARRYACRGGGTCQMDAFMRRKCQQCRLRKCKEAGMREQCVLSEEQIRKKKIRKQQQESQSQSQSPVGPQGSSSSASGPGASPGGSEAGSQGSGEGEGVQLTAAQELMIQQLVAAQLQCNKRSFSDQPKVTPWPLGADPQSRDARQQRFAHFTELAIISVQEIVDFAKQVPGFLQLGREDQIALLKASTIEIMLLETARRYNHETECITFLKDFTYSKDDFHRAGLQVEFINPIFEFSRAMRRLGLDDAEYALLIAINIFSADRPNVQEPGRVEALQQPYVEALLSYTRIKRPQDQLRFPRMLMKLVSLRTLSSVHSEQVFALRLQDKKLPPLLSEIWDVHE

The IC50 is the concentration needed to halve the response being measured. In turn, `C[C@@H](NC(=O)C(=O)N(C)C)[C@H]1CC[C@H]2[C@@H]3CC=C4C[C@@H](O)CC[C@]4(C)[C@H]3CC[C@]12C` (single isomer, unassigned) [Example 118] gave a half-maximal inhibitory concentration (IC50) on SREBP-2 greater than 10 µM. On LXRβ, the EC50 was greater than 10 µM.

Turning to `C[C@H](CCC(=O)N1CCC(C)(CO)C1)[C@H]1CC[C@H]2[C@@H]3CC=C4C[C@@H](O)CC[C@]4(C)[C@H]3CC[C@]12C` (stereo in doubt) [Example 374, (4R)-4-[(1R,3aS,3bS,7S,9aR,9bS,11aR)-7-hydroxy-9a,11a-dimethyl-1H,2H,3H,3aH,3bH,4H,6H,7H,8H,9H,9aH,9bH,10H,11H,11aH-cyclopenta[a]phenanthren-1-yl]-1-[(3R)-3-(hydroxymethyl)-3-methylpyrrolidin-1-yl]pentan-1-one], the IC50 on SREBP-2 is less than 0.25 µM. The EC50 at LXRβ was 0.25 to 1 µM. In the same order, the values of `C[C@H](CCC(=O)N1CCC(C)(C)CC1)[C@H]1CC[C@H]2[C@@H]3CC=C4C[C@@H](O)CC[C@]4(C)[C@H]3CC[C@]12C` [Example 5, (R)-1-(4,4-dimethylpiperidin-1-yl)-4-((3S,8S,9S,10R,13R,14S,17R)-3-hydroxy-10,13-dimethyl-2,3,4,7,8,9,10,11,12,13,14,15,16,17-tetradecahydro-1H-cyclopenta[a]phenanthren-17-yl)pentan-1-one] are less than 0.25 µM and 1 to 10 µM. In the same order, the values of `CCCN(OC)C(=O)CC[C@@H](C)[C@H]1CC[C@H]2[C@@H]3CC=C4C[C@@H](O)CC[C@]4(C)[C@H]3CC[C@]12C` [Example 13, (R)-4-((3S,8S,9S,10R,13R,14S,17R)-3-hydroxy-10,13-dimethyl-2,3,4,7,8,9,10,11,12,13,14,15,16,17-tetradecahydro-1H-cyclopenta[a]phenanthren-17-yl)-N-methoxy-N-propylpentanamide] are less than 0.25 µM and 0.25 to 1 µM. For `CO[C@H]1CCCN(C(=O)CC[C@@H](C)[C@H]2CC[C@H]3[C@@H]4CC=C5C[C@@H](O)CC[C@]5(C)[C@H]4CC[C@]23C)C1` [Example 300, (R)-4-((3S,8S,9S,10R,13R,14S,17R)-3-hydroxy-10,13-dimethyl-2,3,4,7,8,9,10,11,12,13,14,15,16,17-tetradecahydro-1H-cyclopenta[a]phenanthren-17-yl)-1-((S)-3-methoxypiperidin-1-yl)pentan-1-one], the EC50 on LXRβ lay in the range of 0.25 to 1 µM. In the case of `C[C@H](CCC(=O)N1CCC(Oc2ccncc2)CC1)[C@H]1CC[C@H]2[C@@H]3CC=C4C[C@@H](O)CC[C@]4(C)[C@H]3CC[C@]12C` [Example 301, (4R)-4-[(1R,3aS,3bS,7S,9aR,9bS,11aR)-7-hydroxy-9a,11a-dimethyl-1H,2H,3H,3aH,3bH,4H,6H,7H,8H,9H,9aH,9bH,10H,11H,11aH-cyclopenta[a]phenanthren-1-yl]-1-[4-(pyridin-4-yloxy)piperidin-1-yl]pentan-1-one], the EC50 on LXRβ was greater than 10 µM.

For the compound `C[C@H](CCC(=O)N1CCN(c2ccncn2)CC1)[C@H]1CC[C@H]2[C@@H]3CC=C4C[C@@H](O)CC[C@]4(C)[C@H]3CC[C@]12C` [Example 302, (R)-4-((3S,8S,9S,10R,13R,14S,17R)-3-hydroxy-10,13-dimethyl-2,3,4,7,8,9,10,11,12,13,14,15,16,17-tetradecahydro-1H-cyclopenta[a]phenanthren-17-yl)-1-(4-(pyrimidin-4-yl)piperazin-1-yl)pentan-1-one], the EC50 on LXRβ was greater than 10 µM. `C[C@H](CCC(=O)N1CCN(c2ncccn2)CC1)[C@H]1CC[C@H]2[C@@H]3CC=C4C[C@@H](O)CC[C@]4(C)[C@H]3CC[C@]12C` [Example 305, (R)-4-((3S,8S,9S,10R,13R,14S,17R)-3-hydroxy-10,13-dimethyl-2,3,4,7,8,9,10,11,12,13,14,15,16,17-tetradecahydro-1H-cyclopenta[a]phenanthren-17-yl)-1-(4-(pyrimidin-2-yl)piperazin-1-yl)pentan-1-one]: the EC50 at LXRβ is greater than 10 µM. The same measure, in the same setting: then `C[C@H](CCC(=O)N1CCN(c2cccnc2)CC1)[C@H]1CC[C@H]2[C@@H]3CC=C4C[C@@H](O)CC[C@]4(C)[C@H]3CC[C@]12C` [Example 306, (4R)-4-[(1R,3aS,3bS,7S,9aR,9bS,11aR)-7-hydroxy-9a,11a-dimethyl-1H,2H,3H,3aH,3bH,4H,6H,7H,8H,9H,9aH,9bH,10H,11H,11aH-cyclopenta[a]phenanthren-1-yl]-1-[4-(pyridin-3-yl)piperazin-1-yl]pentan-1-one], with greater than 10 µM; and `C[C@H](CCC(=O)N1CCN(c2ccccn2)CC1)[C@H]1CC[C@H]2[C@@H]3CC=C4C[C@@H](O)CC[C@]4(C)[C@H]3CC[C@]12C` [Example 307, (R)-4-((3S,8S,9S,10R,13R,14S,17R)-3-hydroxy-10,13-dimethyl-2,3,4,7,8,9,10,11,12,13,14,15,16,17-tetradecahydro-1H-cyclopenta[a]phenanthren-17-yl)-1-(4-(pyridin-2-yl)piperazin-1-yl)pentan-1-one], with greater than 10 µM. Still for that read-out and setting: then `C[C@H](CCC(=O)N1CCN(C(=O)c2ccnnc2)CC1)[C@H]1CC[C@H]2[C@@H]3CC=C4C[C@@H](O)CC[C@]4(C)[C@H]3CC[C@]12C` [Example 312, (R)-4-((3S,8S,9S,10R,13R,14S,17R)-3-hydroxy-10,13-dimethyl-2,3,4,7,8,9,10,11,12,13,14,15,16,17-tetradecahydro-1H-cyclopenta[a]phenanthren-17-yl)-1-(4-(pyridazine-4-carbonyl)piperazin-1-yl) pentan-1-one], with greater than 10 µM; and `C[C@H](CCC(=O)N1CCN(C(=O)C2CC2)CC1)[C@H]1CC[C@H]2[C@@H]3CC=C4C[C@@H](O)CC[C@]4(C)[C@H]3CC[C@]12C` [Example 314, (4R)-4-[(1R,3aS,3bS,7S,9aR,9bS,11aR)-7-hydroxy-9a,11a-dimethyl-1H,2H,3H,3aH,3bH,4H,6H,7H,8H,9H,9aH,9bH,10H,11H,11aH-cyclopenta[a]phenanthren-1-yl]-1-(4-cyclopropanecarbonylpiperazin-1-yl)pentan-1-one], with greater than 10 µM. As to `CC(C)C(=O)N1CCN(C(=O)CC[C@@H](C)[C@H]2CC[C@H]3[C@@H]4CC=C5C[C@@H](O)CC[C@]5(C)[C@H]4CC[C@]23C)CC1` [Example 315, (R)-4-((3S,8S,9S,10R,13R,14S,17R)-3-hydroxy-10,13-dimethyl-2,3,4,7,8,9,10,11,12,13,14,15,16,17-tetradecahydro-1H-cyclopenta[a]phenanthren-17-yl)-1-(4-isobutyrylpiperazin-1-yl)pentan-1-one], the EC50 on LXRβ is greater than 10 µM. `CC(=O)N1CCC(N(C)C(=O)CC[C@@H](C)[C@H]2CC[C@H]3[C@@H]4CC=C5C[C@@H](O)CC[C@]5(C)[C@H]4CC[C@]23C)CC1` [Example 407, (4R)-4-[(1R,3aS,3bS,7S,9aR,9bS,11aR)-7-hydroxy-9a,11a-dimethyl-1H,2H,3H,3aH,3bH,4H,6H,7H,8H,9H,9aH,9bH,10H,11H,11aH-cyclopenta[a]phenanthren-1-yl]-N-(1-acetylpiperidin-4-yl)-N-methylpentanamide]: the EC50 on LXRβ was greater than 10 µM. Still for that read-out and setting: the result for `CC(=O)N1CCN(C(=O)CC[C@@H](C)[C@H]2CC[C@H]3[C@@H]4CC=C5C[C@@H](O)CC[C@]5(C)[C@H]4CC[C@]23C)C[C@@H]1C` [Example 427, (R)-1-((S)-4-acetyl-3-methylpiperazin-1-yl)-4-((3S,8S,9S,10R,13R,14S,17R)-3-hydroxy-10,13-dimethyl-2,3,4,7,8,9,10,11,12,13,14,15,16,17-tetradecahydro-1H-cyclopenta[a]phenanthren-17-yl)pentan-1-one] reads greater than 10 µM. For the compound `CC(=O)N1CCN(C(=O)CC[C@@H](C)[C@H]2CC[C@H]3[C@@H]4CC=C5C[C@@H](O)CC[C@]5(C)[C@H]4CC[C@]23C)[C@@H](C)C1` [Example 428, (4R)-4-[(1R,3aS,3bS,7S,9aR,9bS,11aR)-7-hydroxy-9a,11a-dimethyl-1H,2H,3H,3aH,3bH,4H,6H,7H,8H,9H,9aH,9bH,10H,11H,11aH-cyclopenta[a]phenanthren-1-yl]-1-[(2S)-4-acetyl-2-methylpiperazin-1-yl]pentan-1-one], the EC50 at LXRβ is greater than 10 µM. On the same count and under the same terms, then `COCCNC(=O)OC[C@@H](C)[C@H]1CC[C@H]2[C@@H]3CC=C4C[C@@H](O)CC[C@]4(C)[C@H]3CC[C@]12C` [Example 460, (2S)-2-[(1R,3aS,3bS,7S,9aR,9bS,11aS)-7-hydroxy-9a,11a-dimethyl-1H,2H,3H,3aH,3bH,4H,6H,7H,8H,9H,9aH,9bH,10H,11H,11aH-cyclopenta[a]phenanthren-1-yl]propyl N-(2-methoxyethyl)carbamate], with greater than 10 µM; and `CC(NS(C)(=O)=O)C1CCN(C(=O)CC[C@@H](C)[C@H]2CC[C@H]3[C@@H]4CC=C5C[C@@H](O)CC[C@]5(C)[C@H]4CC[C@]23C)CC1` (stereo partly drawn) [Example 475, N-(1-(1-((R)-4-((3S,8S,9S,10R,13R,14S,17R)-3-hydroxy-10,13-dimethyl-2,3,4,7,8,9,10,11,12,13,14,15,16,17-tetradecahydro-1H-cyclopenta[a]phenanthren-17-yl)pentanoyl)piperidin-4-yl)ethyl)methanesulfonamide], with greater than 10 µM.

On to `CNc1nccc(N2CCN(C(=O)CC[C@@H](C)[C@H]3CC[C@H]4[C@@H]5CC=C6C[C@@H](O)CC[C@]6(C)[C@H]5CC[C@]34C)CC2)n1` [Example 561, (R)-4-((3S,8S,9S,10R,13R,14S,17R)-3-hydroxy-10,13-dimethyl-2,3,4,7,8,9,10,11,12,13,14,15,16,17-tetradecahydro-1H-cyclopenta[a]phenanthren-17-yl)-1-(4-(2-(methylamino)pyrimidin-4-yl)piperazin-1-yl)pentan-1-one], for which, at LXRβ, the EC50 was greater than 10 µM.
